Data set [1] relates to COLO 205. Put plainly: Cytotoxicity against human COLO205 cells after 72 hrs by MTT assay. Particulars: COLO 205, 72 h. The class given is cell-based. For orientation: Tetrazolium dyes change colour on reduction, which living cells bring about.
Data set [2] is described as follows: Cytotoxicity against human HA22T cells after 72 hrs by MTT assay. The class given is cell-based.
A short description of data set [3]: Cytotoxicity against SKBR3 cells after 72 hrs by MTT assay. The following applies: Homo sapiens, SK-BR-3, 72 h. The class given is cell-based.
The subject of a further data set is MOLT-4. The data set can be described thus: Cytotoxicity against MOLT4 cells after 72 hrs by MTT assay. The following applies: Homo sapiens, MOLT-4, 72 h.
The subject of a further data set is Nucleic Acid. The data set can be described thus: Binding affinity to Escherichia coli JM83 pUC19 DNA assessed as DNA intercalation assay. The format is nucleic-acid assay.
Data set [4] relates to COLO 205. The data set can be described thus: Antitumor activity against human COLO205 cells implanted in SCID mouse at 10 mg/kg injected into tail vein. The format is functional. The following applies: read-out: TGI.
Data set [5] in a line: Toxicity in ICR mouse. The class given is organism-based. The following applies: in vivo.

These results are taken from ChEMBL document CHEMBL1144567, “Linker-modified triamine-linked acridine dimers: synthesis and cytotoxicity properties in vitro and in vivo” (Bioorg Med Chem, 2007).

Bounds are passed on as bounds.

For the compound `CCc1ccc(CN(CCCNc2c3ccc(Cl)cc3nc3ccc(OC)cc23)CCCNc2c3ccc(Cl)cc3nc3ccc(OC)cc23)o1`, the IC50 – broadly, the concentration that inhibits the measured activity by half – amounted to 2560 nM in the data set on COLO 205 [1], 3320 nM in data set [2], 5250 nM in data set [3] and 100 nM with MOLT-4.
For the compound `COc1ccc2nc3cc(Cl)ccc3c(NCCCN(CCCNc3c4ccc(Cl)cc4nc4ccc(OC)cc34)Cc3ccc(Br)o3)c2c1`, the half-maximal inhibitory concentration (IC50) was 410 nM in the data set with COLO 205 [1], 1110 nM in data set [2], 4240 nM in data set [3] and under 10 nM with MOLT-4. The SC50 in the data set on Nucleic Acid was over 20 µM.
Regarding `COc1ccc2nc3cc(Cl)ccc3c(NCCCN(CCCNc3c4ccc(Cl)cc4nc4ccc(OC)cc34)Cc3ccsc3)c2c1`, the IC50 was determined as 560 nM with COLO 205 [1], 1410 nM in data set [2], 1170 nM in data set [3] and 70 nM with MOLT-4.
With `COc1ccc2nc3cc(Cl)ccc3c(NCCCCNCCCNc3c4ccc(Cl)cc4nc4ccc(OC)cc34)c2c1`, the IC50 was 130 nM with COLO 205 [1], 330 nM in data set [2], 50 nM in data set [3] and under 20 nM in the data set with MOLT-4. The SC50 with Nucleic Acid was determined as 4 µM.
In the same order, the values of `COc1ccc2nc3cc(Cl)ccc3c(NCCCN(CCCNc3c4ccc(Cl)cc4nc4ccc(OC)cc34)Cc3ccccc3OC)c2c1` are 3610 nM, 930 nM, 710 nM, under 10 nM and 2 µM.
With `COc1ccc2nc3cc(Cl)ccc3c(NCCCN(CCCNc3c4ccc(Cl)cc4nc4ccc(OC)cc34)Cc3cc(Br)cs3)c2c1`, the IC50 turned out to be 720 nM in the data set on COLO 205 [1], 840 nM in data set [2], 700 nM in data set [3] and 60 nM in the data set with MOLT-4.
In the same order, the values of `COc1ccc2nc3cc(Cl)ccc3c(NCCCN(CCCNc3c4ccc(Cl)cc4nc4ccc(OC)cc34)Cc3ccc(Cl)cc3)c2c1` are 200 nM, 580 nM, 530 nM and under 10 nM.
Turning to `COc1ccc2nc3cc(Cl)ccc3c(NCCCN(CCCNc3c4ccc(Cl)cc4nc4ccc(OC)cc34)Cc3cc(OC)c(OC)c(OC)c3)c2c1`, the IC50 worked out at 4500 nM in the data set with COLO 205 [1], 4420 nM in data set [2], 5040 nM in data set [3] and 60 nM in the data set with MOLT-4.
With `COc1ccc2nc3cc(Cl)ccc3c(NCCCN(CCCNc3c4ccc(Cl)cc4nc4ccc(OC)cc34)CCc3ccccc3)c2c1`, the IC50 with COLO 205 [1] is 700 nM; in data set [2] it was 650 nM; in data set [3], 680 nM; in the data set with MOLT-4 it was under 10 nM.
For `COc1ccc2nc3cc(Cl)ccc3c(NCCCN(CCCNc3c4ccc(Cl)cc4nc4ccc(OC)cc34)CC3COC(C)(C)O3)c2c1` (stereo not given), in that order: 5600 nM, 3430 nM, 6610 nM and under 10 nM.
For `COc1ccc2nc3cc(Cl)ccc3c(NCCCN(CCCNc3c4ccc(Cl)cc4nc4ccc(OC)cc34)Cc3ccc(Br)s3)c2c1`, the IC50 in the data set with COLO 205 [1] is 850 nM; in data set [2], 1150 nM; in data set [3] it was 5800 nM; with MOLT-4 it was under 10 nM. Further, the SC50 in the data set on Nucleic Acid was over 20 µM.
Regarding `CCCCCCN(CCCNc1c2ccc(Cl)cc2nc2ccc(OC)cc12)CCCNc1c2ccc(Cl)cc2nc2ccc(OC)cc12`, the IC50 with COLO 205 [1] is 890 nM; in data set [2], 6950 nM; in data set [3], 6140 nM; in the data set with MOLT-4, 90 nM.
As to `COc1ccc2nc3cc(Cl)ccc3c(NCCCCN(CCCNc3c4ccc(Cl)cc4nc4ccc(OC)cc34)Cc3ccsc3)c2c1`, the IC50 in the data set with COLO 205 [1] was 250 nM; in data set [2] it was 3590 nM; in data set [3] it was 990 nM; in the data set with MOLT-4 it was under 10 nM.
For `COc1cccc(CN(CCCCNc2c3ccc(Cl)cc3nc3ccc(OC)cc23)CCCNc2c3ccc(Cl)cc3nc3ccc(OC)cc23)c1`, in that order: 250 nM, 5660 nM, 1300 nM and 710 nM.
Turning to `COc1ccc2nc3cc(Cl)ccc3c(NCCCCN(CCCNc3c4ccc(Cl)cc4nc4ccc(OC)cc34)Cc3cccs3)c2c1`, the IC50 in the data set with COLO 205 [1] worked out at 500 nM; in data set [2], 440 nM; in data set [3] it was 680 nM; in the data set with MOLT-4, 40 nM.
`COc1ccc2nc3cc(Cl)ccc3c(NCCCN(CCCNc3c4ccc(Cl)cc4nc4ccc(OC)cc34)Cc3ccccn3)c2c1`: the inhibition in vivo at 10 mg/kg in the data set on COLO 205 [4] was 0%. In addition, in data set [5], the MTD was found to be 10 mg/kg. The 50% inhibitory concentration (IC50) in the data set on COLO 205 [1] was 10 nM; in data set [2], 3970 nM; in data set [3], 720 nM; in the data set on MOLT-4, under 10 nM. In addition, in the data set on Nucleic Acid, the SC50 is 2 µM.
Turning to `CCCN(CCCNc1c2ccc(Cl)cc2nc2ccc(OC)cc12)CCCNc1c2ccc(Cl)cc2nc2ccc(OC)cc12`, the IC50 in the data set on COLO 205 [1] is 1460 nM; in data set [2], 5980 nM; in data set [3], 5780 nM; in the data set on MOLT-4, under 20 nM. For the same compound, the SC50 in the data set on Nucleic Acid is 2 µM.
Consider `COc1ccc2nc3cc(Cl)ccc3c(NCCCCN(CCCNc3c4ccc(Cl)cc4nc4ccc(OC)cc34)CC3CC3)c2c1`, for which the IC50 with COLO 205 [1] is 10 nM; in data set [2], 510 nM; in data set [3] it was 720 nM; with MOLT-4 it was under 10 nM. For the same compound, the SC50 in the data set on Nucleic Acid stood at 2 µM.
For `COc1ccc2nc3cc(Cl)ccc3c(NCCCN(CCCNc3c4ccc(Cl)cc4nc4ccc(OC)cc34)Cc3ccc(F)cc3F)c2c1`, the IC50 in the data set on COLO 205 [1] is 770 nM; in data set [2], 230 nM; in data set [3] it was 780 nM; with MOLT-4, under 10 nM.
In the same order, the values of `COc1ccc2nc3cc(Cl)ccc3c(NCCCN(CCCNc3c4ccc(Cl)cc4nc4ccc(OC)cc34)CC(O)CO)c2c1` (stereo not given) are 130 nM, 1720 nM, 1290 nM and under 10 nM.
For the compound `COc1ccc2nc3cc(Cl)ccc3c(NCCCN(CCCNc3c4ccc(Cl)cc4nc4ccc(OC)cc34)Cc3ccco3)c2c1`, the IC50 in the data set on COLO 205 [1] is 240 nM; in data set [2] it was 610 nM; in data set [3], 840 nM; in the data set with MOLT-4, under 10 nM. For the same compound, in the data set with Nucleic Acid, the SC50 was found to be 2 µM.
Compound `CCN(CCCNc1c2ccc(Cl)cc2nc2ccc(OC)cc12)CCCNc1c2ccc(Cl)cc2nc2ccc(OC)cc12` yielded an MTD in data set [5] of 30 mg/kg. Besides, the IC50 in the data set with COLO 205 [1] is 90 nM; in data set [2] it was 5330 nM; in data set [3] it was 7310 nM; with MOLT-4, under 20 nM.
For `COc1ccc2nc3cc(Cl)ccc3c(NCCCNCCCNc3c4ccc(Cl)cc4nc4ccc(OC)cc34)c2c1`, the inhibition in vivo at 10 mg/kg in the data set with COLO 205 [4] came out at 80%. The MTD in data set [5] worked out at 10 mg/kg. The IC50 was 410 nM in the data set on COLO 205 [1], 330 nM in data set [2], 770 nM in data set [3] and under 20 nM with MOLT-4. Besides, in the data set on Nucleic Acid, the SC50 stood at 4 µM.
In the case of `COc1cccc(CN(CCCNc2c3ccc(Cl)cc3nc3ccc(OC)cc23)CCCNc2c3ccc(Cl)cc3nc3ccc(OC)cc23)c1`, the 50% inhibitory concentration (IC50) in the data set on COLO 205 [1] was 350 nM; in data set [2], 420 nM; in data set [3], 680 nM; in the data set on MOLT-4, under 10 nM. In the data set with Nucleic Acid, the SC50 worked out at 2 µM.
On to `COc1ccc2nc3cc(Cl)ccc3c(NCCCN(CCCNc3c4ccc(Cl)cc4nc4ccc(OC)cc34)CC3OC(C)(C)OC3C3COC(C)(C)O3)c2c1` (stereo not given), for which the IC50 in the data set with COLO 205 [1] is 2190 nM; in data set [2] it was 4680 nM; in data set [3], 4730 nM; in the data set with MOLT-4, 60 nM.
Regarding `COc1ccc2nc3cc(Cl)ccc3c(NCCCN(CCCNc3c4ccc(Cl)cc4nc4ccc(OC)cc34)Cc3cccnc3)c2c1`, the IC50 in the data set on COLO 205 [1] is 500 nM; in data set [2], 740 nM; in data set [3] it was 640 nM; in the data set with MOLT-4, under 10 nM.
For `COc1ccc(CN(CCCCNc2c3ccc(Cl)cc3nc3ccc(OC)cc23)CCCNc2c3ccc(Cl)cc3nc3ccc(OC)cc23)cc1`, the IC50 with COLO 205 [1] was determined as 390 nM; in data set [2] it was 5450 nM; in data set [3], 860 nM; in the data set on MOLT-4, 710 nM.
`COc1ccc2nc3cc(Cl)ccc3c(NCCCN(CCCNc3c4ccc(Cl)cc4nc4ccc(OC)cc34)Cc3ccccc3)c2c1`: the IC50 in the data set with COLO 205 [1] turned out to be 750 nM; in data set [2], 700 nM; in data set [3], 700 nM; in the data set on MOLT-4, 700 nM. For the same compound, the SC50 in the data set on Nucleic Acid was determined as 2 µM.
Regarding `COc1ccc2nc3cc(Cl)ccc3c(NCCCCN(CCCNc3c4ccc(Cl)cc4nc4ccc(OC)cc34)Cc3ccco3)c2c1`, the IC50 stood at 370 nM with COLO 205 [1], 4730 nM in data set [2], 5070 nM in data set [3] and 60 nM with MOLT-4.
In the same order, the values of `COc1ccc2nc3cc(Cl)ccc3c(NCCCCN(CCCNc3c4ccc(Cl)cc4nc4ccc(OC)cc34)Cc3ccoc3)c2c1` are 320 nM, 440 nM, 710 nM and 30 nM.
Take `COc1ccc2nc3cc(Cl)ccc3c(NCCCN(CCCNc3c4ccc(Cl)cc4nc4ccc(OC)cc34)Cc3sccc3C)c2c1`: the IC50 in the data set on COLO 205 [1] is 10 nM; in data set [2], 60 nM; in data set [3], 70 nM; with MOLT-4 it was under 10 nM. The SC50 with Nucleic Acid was found to be 2 µM.
On to `COc1ccc2nc3cc(Cl)ccc3c(NCCCN(CCCNc3c4ccc(Cl)cc4nc4ccc(OC)cc34)Cc3cccc(OC)c3OC)c2c1`, for which the IC50 in the data set with COLO 205 [1] is 640 nM; in data set [2], 620 nM; in data set [3] it was 790 nM; in the data set on MOLT-4, 10 nM. Further, the SC50 in the data set on Nucleic Acid worked out at 2 µM.
For the compound `COc1ccc2nc3cc(Cl)ccc3c(NCCCN(CCCNc3c4ccc(Cl)cc4nc4ccc(OC)cc34)CC3CC3)c2c1`, the IC50 in the data set on COLO 205 [1] was 1270 nM; in data set [2] it was 480 nM; in data set [3], 820 nM; with MOLT-4 it was under 10 nM. In the data set on Nucleic Acid, the SC50 was determined as 2 µM.
As for `COc1cccc2c1C(=O)c1c(O)c3c(c(O)c1C2=O)C[C@@](O)(C(=O)CO)C[C@@H]3O[C@H]1C[C@H](N)[C@H](O)[C@H](C)O1` [DOXORUBICIN], the results for the IC50 (in the data set with COLO 205 [1]; in data set [2]; in data set [3]) were 260 nM, 310 nM and 290 nM, respectively. Moreover, the SC50 with Nucleic Acid was 10 µM.
